Test results taken from patent publication US20240287063A1, “METHIONINE ADENOSYLTRANSFERASE 2A INHIBITOR” (NANJING CHIA TAI TIANQING PHARMACEUTICAL CO., LTD., priority 2021, published 2024).
Where a name gives a salt, the structure may show the parent alone.

How the values were obtained:
[1] = tested on: HCT116 MTAP −/− cells; assay: Cell testing method: HCT116 MTAP-/- cell proliferation inhibition (CellTiter-Glo, 120 h); assay type: cell-based; conditions: Homo sapiens, HCT-116; score by IC50 for inhibiting HCT116 MTAP−/− cells
Protocol: HCT116 MTAP −/− cells (purchased from Horizon Discovery): human colorectal cancer cell lines with MTAP gene deletion were cultured in medium RPMI 1640+10% FBS (Fetal bovine serum). On day 0 of the experiment, the live cell density of the foregoing cells in logarithmic growth phase was adjusted to 5000 cells/ml, the cells were inoculated to a 96-well plate by an amount of 100 μl/well, and a blank group was set in parallel; and the inoculated cell plate was put into a 37° C., 5% CO2 incubator for overnight culture.
On day 1 of the experiment, the overnight cultured cell plate was taken out, the supernatant was discarded, 80 μl of serum-free RPMI 1640 medium was added to each well, and place the cells in an incubator for starvation cultivation for 4 h. The compound to be tested was dissolved in DMSO (dimethyl sulfoxide) to prepare a 10 mM compound stock solution. After starvation, the cell plate was taken out, and 80 μl of RPMI 1640+20% FBS medium was added to each well; the cell plate was placed on an automatic liquid dispenser D300e (Tecan), and a dosing program was set as follows: a maximum concentration of the compound to be tested was 30 μM, the compound was diluted with DMSO by a 3 times concentration gradient, there was a total of 10 concentrations, two duplicate wells were set for each concentration, and the DMSO final concentration in each well of the 96-well plate was 0.3%, v/v. The pre-prepared 10 mM stock solution of the compound to be tested was taken out, and the above dosing program was run for dosing. After the dosing was completed, the cell plate was placed in incubator and culture for 120 h.
On day 6 of the experiment, the cell plate was taken out, 50 μl of CellTiter-Go® (purchased from Promega) was added to each well, and fluorescence signal was measured on Envision (PerkinElmer) according to operation procedures in the manual.
A dose-effect curve: log(inhibitor) vs. response-Variable slope was fitted by using GraphPad Prism 5 software to obtain an IC50 value of the compound for inhibiting cell proliferation inhibition. A formula for calculating an inhibition rate was: […]
Wherein, • Signal value of tested compound: mean fluorescence signal of cells group+medium group+compound group; • Signal value of blank group: mean fluorescence signal of medium group; • Signal value of negative control group: mean fluorescence signal of cells group+medium group.

[2] = biological target: T1, MAT2A enzyme (Homo sapiens, UniProt P31153); assay: Enzymatic testing method for MAT2A (Biomol Green, OD620); assay type: biochemical; conditions: score by IC50 for inhibiting MAT2A; read-out: MAT2A inhibition score
T1 construct: purchased BPS 71401
Protocol: • a) A 5×MAT2A test buffer (250 mM Tris-HCl, pH 8.0; 250 mM KCl; 75 mM MgCl2; 0.025% BSA; 0.05% Brij35; 1.5 mM EDTA) was first prepared and partially diluted to 1× for later use; • b) Preparation and addition of MAT2A enzyme (BPS, 71401): the MAT2A enzyme was prepared into 3.674 ng/L by using the 1×MAT2A test buffer (1.67×, final concentration 2.20 ng/L), a BioTek (MultiFlo FX) automatic liquid separator was used, 15 μL of 1.67×MAT2A enzyme solution was added to compound test wells and negative control wells respectively, and 15 μL of 1×MAT2A test buffer was added to blank control wells; • c) Preparation and addition of a compound: a compound to be tested was diluted with DMSO from 10 mM stock solution to 100 μM, a positive drug AGI-24512 was diluted under the same conditions, and the diluted compound and positive drug were automatically sprayed into each well by using a Tecan compound titrator (D300e) according to preset concentration gradients, where the spray volume was little and negligible. The concentration gradient was initially 1 μM, the dilution was implemented by ½ log, and a total of 8 gradients were set. Centrifugation at 2500 rpm for 30 s and incubation at 25° C. for 30 min were performed; • d) Preparation of ATP: 10 mM ATP (Sigma, A7699) was diluted with 1×MAT2A test buffer to 700 μM for later use; • e) Preparation and addition of a substrate and ATP mixture: 5×MAT2A test buffer, 3 μL/well; 750 μM L-methionine (Adamas, 01100469), 2.5 μL/well; 700 μM ATP, 2.5 μL/well; and double distilled water, 2 μL/well. A total amount of required mixture was prepared according to the number of test wells, and 10 μL of the mixture was added to each well by using the BioTek (MultiFlo FX) automatic liquid separator, followed by centrifugation at 2500 rpm for 30 s and reaction at 25° C. for 150 min; • f) Addition of Biomol Green detection reagent: 50 μL of Biomol Green (Enzo, BML-AK111) was added to each well by using the BioTek (MultiFlo FX) automatic liquid separator, followed by centrifugation at 2500 rpm for 30 s and incubation at 25° C. for 20 minutes; • g) After the reaction, OD620 values were read by using a Perkin Elmer (Envision 2105) multifunctional plate reader.
A formula for calculating an inhibition rate was as follows: […]
Wherein, • % Inhibition: inhibition rate % • ODsample: OD620 value in a sample well; • ODmin: representing a mean OD620 value of blank control wells without the enzyme or compound to be tested; • ODmax: representing a mean OD620 value of negative control wells with the enzyme and without the compound.
Then a dose-effect curve log(inhibitor) vs. response-Variable slope was fitted by usingGraphPad Prism 5 software to obtain an IC50 value of compound for MAT2A enzyme inhibition.

T1 sequence (P31153 whole entry): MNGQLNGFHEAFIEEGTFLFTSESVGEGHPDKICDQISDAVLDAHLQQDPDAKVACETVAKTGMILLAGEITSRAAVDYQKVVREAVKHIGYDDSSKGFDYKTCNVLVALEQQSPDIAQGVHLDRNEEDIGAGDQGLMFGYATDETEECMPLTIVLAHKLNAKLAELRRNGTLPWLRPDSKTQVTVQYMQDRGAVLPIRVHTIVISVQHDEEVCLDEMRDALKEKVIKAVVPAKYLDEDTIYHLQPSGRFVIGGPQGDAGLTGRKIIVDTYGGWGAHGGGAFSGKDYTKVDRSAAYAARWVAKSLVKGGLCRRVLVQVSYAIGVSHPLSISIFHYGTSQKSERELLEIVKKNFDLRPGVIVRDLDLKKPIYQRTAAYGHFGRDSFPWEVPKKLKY

`O=c1c(-c2ccc(OC(F)F)cc2)cn2ccc(OCC(F)(F)F)nc2c1-c1ccc(OC(F)F)cc1` [Example 24, 7,9-bis[4-(difluoromethoxy)phenyl]-2-(2,2,2-trifluoroethoxy)-8H-pyrido[1,2-a]pyrimidin-8-one] gave an IC50 [1] of under 150 nM and an IC50 [2] of under 50 nM.

For `O=c1c(-c2ccc3c(c2)OCO3)cn2ccc(C3CC3)nc2c1-c1ccc2c(c1)OCO2` [Example 28, 7,9-bis(2H-1,3-benzodioxol-5-yl)-2-cyclopropyl-8H-pyrido[1,2-a]pyrimidin-8-one], the IC50 [1] was under 150 nM and the IC50 [2] was under 50 nM.

Work on `CCOc1ccn2cc(-c3ccc(OC(F)F)cc3)c(=O)c(-c3ccc(OC(F)F)cc3)c2c1` [Example 4] yielded an IC50 [1] of under 150 nM and an IC50 [2] of under 50 nM.

`O=c1c(-c2ccc(OC(F)F)cc2)cn2ccc(C3CC3)cc2c1-c1ccc(OC(F)F)cc1` [Example 3, 8-cyclopropyl-1,3-bis(4-(difluoromethoxy)phenyl)-2H-quinolizin-2-one] was tested, and the IC50 [1] was under 150 nM and the IC50 [2] was under 50 nM.

In the case of `CN1Cc2c3cc(-c4cn5ccc(C6CC6)nc5c(-c5ccc(OC(F)F)cc5)c4=O)ccc3nn2CC12CC2` [Example 38, 2-cyclopropyl-9-(4-(difluoromethoxy)phenyl)-7-(2′-methyl-1′,2′-dihydro-4′H-spiro[cyclopropane-1,3′-pyrazino[1,2-b]indazol]-9′-yl)-8H-pyrido[1,2-a]pyrimidin-8-one], the IC50 [1] is reported as under 150 nM and the IC50 [2] is reported as under 50 nM.

Work on `CN1C(=O)c2c3cc(-c4cn5ccc(NCC(F)(F)F)nc5c(-c5ccc(OC(F)F)cc5)c4=O)ccc3nn2CC12CC2` [Example 15, 9′-{9-[4-(difluoromethoxy)phenyl]-8-oxo-2-[(2,2,2-trifluoroethyl)amino]pyrido[1,2-a]pyrimidin-7-yl}-2′-methyl-4′H-spiro[cyclopropane-1,3′-pyrazino[1,2-b]indazol]-1′-one] yielded an IC50 [1] of 400 to 1000 nM and an IC50 [2] of under 50 nM.

With `Cc1cc(NCC(F)(F)F)nc2c(-c3ccc(OC(F)F)cc3)c(=O)c(-c3ccc(OC(F)F)cc3)cn12` [Example 41, 7,9-bis(4-(difluoromethoxy)phenyl)-4-methyl-2-((2,2,2-trifluoroethyl)amino)-8H-pyrido[1,2-a]pyrimidin-8-one] the IC50 [1] was under 150 nM and the IC50 [2] was under 50 nM.

With `Cn1cc2cc(-c3cn4ccc(NCC(F)(F)F)nc4c(-c4ccc5c(c4)OC(F)(F)O5)c3=O)ccc2n1` [Example 20, 9-(2,2-difluoro-1,3-benzodioxol-5-yl)-7-(2-methyl-2H-indazol-5-yl)-2-[(2,2,2-trifluoroethyl)amino]-8H-pyrido[1,2-a]pyrimidin-8-one] the IC50 [1] was under 150 nM and the IC50 [2] was under 50 nM.

In the case of `Cc1cn2cc(-c3ccc(OC(F)F)cc3)c(=O)c(-c3ccc(OC(F)F)cc3)c2nc1NCC(F)(F)F` [Example 42, 7,9-bis(4-(difluoromethoxy)phenyl)-3-methyl-2-((2,2,2-trifluoroethyl)amino)-8H-pyrido[1,2-a]pyrimidin-8-one], the IC50 [1] is reported as 150 to 400 nM and the IC50 [2] is reported as under 50 nM.

`O=c1c(-c2ccc3nn4c(c3c2)CNC2(CC2)C4)cn2ccc(C3CC3)nc2c1-c1ccc(OC(F)F)cc1` [Example 39, 2-cyclopropyl-9-(4-(difluoromethoxy)phenyl)-7-(1′,2′-dihydro-4′H-spiro[cyclopropane-1,3′-pyrazino[1,2-b]indazol]-9′-yl)-8H-pyrido[1,2-a]pyrimidin-8-one] gave an IC50 [1] of under 150 nM and an IC50 [2] of under 50 nM.

`Cn1cc2cc(-c3cn4ccc(NCC(F)(F)F)nc4c(-c4ccc5nn(C)cc5c4)c3=O)ccc2n1` [Example 12, 7,9-bis[(2-methyl-2H-indazol-5-yl)]-2-[(2,2,2-trifluoroethyl)amino]-8H-pyrido[1,2-a]pyrimidin-8-one] showed an IC50 [1] of over 1000 nM and an IC50 [2] of under 50 nM.

`O=C1Cn2nc3ccc(-c4cn5ccc(NCC(F)(F)F)nc5c(-c5ccc(OC(F)F)cc5)c4=O)cc3c2C2(CC2)N1` [Example 16, 9′-{9-[4-(difluoromethoxy)phenyl]-8-oxo-2-[(2,2,2-trifluoroethyl)amino]pyrido[1,2-a]pyrimidin-7-yl}-2′,4′-dihydrospiro[cyclopropane-1,1′-pyrazino[1,2-b]indazol]-3′-one] showed an IC50 [1] of 400 to 1000 nM and an IC50 [2] of under 50 nM.

`O=c1c(-c2ccc3c(c2)OCO3)cn2ccc(C3CC3)nc2c1-c1ccc2c(c1)OC(F)(F)O2` [Example 32, 7-(2H-1,3-benzodioxol-5-yl)-2-cyclopropyl-9-(2,2-difluoro-1,3-benzodioxol-5-yl)pyrido[1,2-a]pyrimidin-8-one] showed an IC50 [1] of under 150 nM and an IC50 [2] of under 50 nM.

Work on `Cn1nc2ccc(-c3cn4ccc(C5CC5)cc4c(-c4ccc5c(c4)OC(F)(F)O5)c3=O)cc2c1N` [Example 6, 3-(3-amino-2-methyl-2H-indazol-5-yl)-8-cyclopropyl-1-(2,2-difluoro-1,3-benzodioxol-5-yl) quinolizin-2-one hydrochloride] yielded an IC50 [1] of 150 to 400 nM and an IC50 [2] of under 50 nM.

Compound `O=c1c(-c2ccc(OC(F)F)cc2)cn2ccc(C3CC3)nc2c1-c1ccc2c(c1)OC(F)(F)O2` [Example 27, 2-cyclopropyl-9-(2,2-difluoro-1,3-benzodioxol-5-yl)-7-[4-(difluoromethoxy)phenyl]-8H-pyrido[1,2-a]pyrimidin-8-one] has an IC50 [1] of over 1000 nM and an IC50 [2] of 50 to 200 nM.

Work on `Cn1nccc1-c1c2cc(-c3cn4ccc(C5CC5)cc4c(-c4ccc5c(c4)OC(F)(F)O5)c3=O)ccc2nn1C` [Example 7, 8-cyclopropyl-1-(2,2-difluoro-1,3-benzodioxol-5-yl)-3-[2-methyl-3-(2-methylpyrazol-3-yl)indazol-5-yl]quinolizin-2-one] yielded an IC50 [1] of 400 to 1000 nM and an IC50 [2] of under 50 nM.

For `Cn1cc2cc(-c3cn4ccc(C5CC5)nc4c(-c4ccc5c(c4)OC(F)(F)O5)c3=O)ccc2n1` [Example 26, 2-cyclopropyl-9-(2,2-difluoro-1,3-benzodioxol-5-yl)-7-(2-methyl-2H-indazol-5-yl)-8H-pyrido[1,2-a]pyrimidin-8-one], the IC50 [1] was under 150 nM and the IC50 [2] was under 50 nM.

`O=c1c(-c2ccc(OC(F)F)cc2)cn2ccc(NCC(F)(F)F)nc2c1-c1ccc(OC(F)F)cc1` [Example 10, 7,9-bis[4-(difluoromethoxy)phenyl]-2-[(2,2,2-trifluoroethyl)amino]-8H-pyrido[1,2-a]pyrimidin-8-one] gave an IC50 [1] of under 150 nM and an IC50 [2] of under 50 nM.

`COc1ccc(-c2cn3ccc(NCC(F)(F)F)nc3c(-c3ccc(OC)cc3)c2=O)cc1` [Example 11, 7,9-bis[(4-methoxyphenyl)]-2-[(2,2,2-trifluoroethyl)amino]-8H-pyrido[1,2-a]pyrimidin-8-one] was tested, and the IC50 [1] was under 150 nM and the IC50 [2] was under 50 nM.
